Measurements taken from patent US10450297B2, “Sulfonyl amide derivatives for the treatment of abnormal cell growth” (Pfizer, Inc., priority 2007, dated 2019).

Target: FAK kinase (catalytic construct FAK(410-689)) (Homo sapiens (Human), UniProt Q05397)
Experiment: FAKcd kinase ELISA (inhibition of poly-glu-tyr phosphorylation by FAK(410-689))
Assay type: biochemical
Conditions: 50 μM final ATP

FAK kinase (catalytic construct FAK(410-689)), sequence (Q05397 410-689): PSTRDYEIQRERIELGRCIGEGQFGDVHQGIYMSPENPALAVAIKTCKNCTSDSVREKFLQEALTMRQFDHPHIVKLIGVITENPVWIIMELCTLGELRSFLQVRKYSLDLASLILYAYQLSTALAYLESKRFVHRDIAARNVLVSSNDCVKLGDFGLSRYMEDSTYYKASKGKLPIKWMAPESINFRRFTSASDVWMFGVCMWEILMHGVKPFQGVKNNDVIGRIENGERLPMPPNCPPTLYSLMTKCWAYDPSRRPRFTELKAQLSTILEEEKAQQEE

| IC50 [nM] | SMILES |
| --- | --- |
| 1.03 | Cc1cc(C(N)=O)ccc1Nc1ncc(C(F)(F)F)c(NCc2cccnc2N(C)S(C)(=O)=O)n1 [Compound 342, 3-methyl-4-({4-[({2-[methyl(methylsulfonyl)amino]pyridin-3-yl}methyl)amino]-5-(trifluoromethyl)pyrimidin-2-yl}amino)benzamide] |
| 0.993 | Cc1cc(C(N)=O)ccc1Nc1ncc(C(F)(F)F)c(NCc2ncccc2N(C)S(C)(=O)=O)n1 [Compound 343, 3-methyl-4-({4-[({3-[methyl(methylsulfonyl)amino]pyridin-2-yl}methyl)amino]-5-(trifluoromethyl)pyrimidin-2-yl}amino)benzamide] |
| 0.9 | Cc1cc(C(N)=O)ccc1Nc1ncc(C(F)(F)F)c(NCc2nccnc2N(C)S(C)(=O)=O)n1 [Compound 344, 3-methyl-4-({4-[({3-[methyl(methylsulfonyl)amino]pyrazin-2-yl}methyl)amino]-5-(trifluoromethyl)pyrimidin-2-yl}amino)benzamide] |
| 0.981 | Cc1cc(C(N)=O)ccc1Nc1ncc(C(F)(F)F)c(NCc2nccnc2N(C)S(C)(=O)=O)n1 [Compound 345, 3-methyl-4-({4-[({3-[methyl(methylsulfonyl)amino]pyrazin-2-yl}methyl)amino]-5-(trifluoromethyl)pyrimidin-2-yl}amino)benzamide] |
| 0.886 | Cc1cc(C(N)=O)ccc1Nc1ncc(C(F)(F)F)c(NCc2cccc(N(C)S(C)(=O)=O)c2)n1 [Compound 346, 3-methyl-4-{[4-({3-[methyl(methylsulfonyl)amino]benzyl}amino)-5-(trifluoromethyl)pyrimidin-2-yl]amino}benzamide] |
| 2.15 | CC(C)OCc1ccc(Nc2ncc(C(F)(F)F)c(NCc3cccnc3N(C)S(C)(=O)=O)n2)cc1 [Compound 347, N-[3-({{2-{[4-(isopropoxymethyl)phenyl]amino}-5-(trifluoromethyl)pyrimidin-4-yl]amino}methyl)pyridin-2-yl]-N-methylmethane-sulfonamide] |
| < 0.595 | CN(c1ncccc1CNc1nc(Nc2ccc(CN3CCOCC3)cc2)ncc1C(F)(F)F)S(C)(=O)=O [Compound 349, N-methyl-N-[3-({[2-{[4-(morpholin-4-ylmethyl)phenyl]amino}-5-(trifluoromethyl)pyrimidin-4-yl]amino}methyl)pyridin-2-yl]methanesuifonamide] |
| 63.7 | CN(c1ncccc1CNc1nc(Oc2ccc(C(N)=O)cc2)ncc1C(F)(F)F)S(C)(=O)=O [Compound 350, 4-({4-[({2-[methyl(methylsulfonyl)amino]pyridin-3-yl}methyl)amino]-5-(trifluoromethyl)pyrimidin-2-yl}oxy)benzamide] |
| < 0.595 | C[C@@H](N)c1ccc(Nc2ncc(C(F)(F)F)c(NCc3ncccc3N(C)S(C)(=O)=O)n2)cc1 [Compound 352, N-[2-({[2-({4-[(1R)-1-aminoethyl]phenyl}amino)-5-(trifluoromethyl)pyrimidin-4-yl]amino}methyl)pyridin-3-yl]-N-methylmethane-sulfonamide] |
| < 0.595 | C[C@@H](N)c1ccc(Nc2ncc(C(F)(F)F)c(NCc3cccc(N(C)S(C)(=O)=O)c3)n2)cc1 [Compound 353, N-[3-({[2-({4-[(1R)-1-aminoethyl]phenyl}amino)-5-(trifluoromethyl)pyrimidin-4-yl]amino}methyl)phenyl]-N-methylmethanesulfonamide] |
| < 0.595 | C[C@H](N)c1ccc(Nc2ncc(C(F)(F)F)c(NCc3nccnc3N(C)S(C)(=O)=O)n2)cc1 [Compound 355, N-[3-({[2-({4-((1S)-1-aminoethyl]phenyl}amino)-5-(trifluoromethyl)pyrimidin-4-yl]amino}methyl)pyrazin-2-yl]-N-methylmethane-sulfonamide] |
| 0.593 | C[C@H](N)c1ccc(Nc2ncc(C(F)(F)F)c(NCc3ncccc3N(C)S(C)(=O)=O)n2)cc1 [Compound 356, N-[2-({[2-({4-[(1S)-1-aminoethyl]phenyl}amino)-5-(trifluoromethyl)pyrimidin-4-yl]amino}methyl)pyridin-3-yl]-N-methylmethane-sulfonamide] |
| 1.47 | CN(c1cccc(CNc2nc(Nc3ccc(C(N)=O)c(Cl)c3)ncc2C(F)(F)F)c1)S(C)(=O)=O [Compound 357, 2-chloro-4-{[4-({3-[methyl(methylsulfonyl)amino]benzyl}amino)-5-(trifluoromethyl)pyrimidin-2-yl]amino}benzamide] |
| < 0.595 | CN(c1ncccc1CNc1nc(Nc2ccc(C(N)=O)c(Cl)c2)ncc1C(F)(F)F)S(C)(=O)=O [Compound 358, 2-chloro-4-({4-[({2-[methyl(methylsulfonyl)amino]pyridin-3-yl}methyl)amino]-5-(trifluoromethyl)pyrimidin-2-yl}amino)benzamide] |
| < 0.595 | CN(c1cccnc1CNc1nc(Nc2ccc(C(N)=O)c(Cl)c2)ncc1C(F)(F)F)S(C)(=O)=O [Compound 359, 2-chloro-4-({4-[({3-[methyl(methylsulfonyl)amino]pyridin-2-yl}methyl)amino]-5-(trifluoromethyl)pyrimidin-2-yl}amino)benzamide] |
| < 0.595 | CN(c1nccnc1CNc1nc(Nc2ccc(C(N)=O)c(Cl)c2)ncc1C(F)(F)F)S(C)(=O)=O [Compound 360, 2-chloro-4-({4-[({3-[methyl(methylsulfonyl)amino]pyrazin-2-yl}methyl)amino]-5-(trifluoromethyl)pyrimidin-2-yl}amino)benzamide] |
| 8.7 | CN(c1ncccc1CNc1nc(Nc2cccc(C(=O)NC3CCNCC3)c2)ncc1C(F)(F)F)S(C)(=O)=O [Compound 361, 3-({4-[({2-[methyl(methylsulfonyl)amino]pyridin-3-yl}methyl)amino]-5-(trifluoromethyl)pyrimidin-2-yl}amino)-N-piperidin-4-ylbenzamide] |
| 0.976 | C[C@H](N)c1ccc(Nc2ncc(C(F)(F)F)c(NCc3cccc(N(C)S(C)(=O)=O)c3)n2)cc1 [Compound 365, N-[3-({[2-({4-[(1S)-1-aminoethyl]phenyl}amino)-5-(trifluoromethyl)pyrimidin-4-yl]amino}methyl)phenyl]-N-methylmethanesulfonamide] |
| < 0.595 | CC(=O)Nc1cccc(Nc2ncc(C(F)(F)F)c(NCc3cccnc3N(C)S(C)(=O)=O)n2)c1 [Compound 366, N-[3-({4-[({2-[methyl(methylsulfonyl)amino]pyridin-3-yl}methyl)amino]-5-(trifluoromethyl)pyrimidin-2-yl}amino)phenyl]acetamide] |
| 1.64 | CN1CCN(c2cccc(Nc3ncc(C(F)(F)F)c(NCc4cccnc4N(C)S(C)(=O)=O)n3)c2)C1=O [Compound 367, N-methyl-N-[3-({[2-{[3-(3-methyl-2-oxoimidazolidin-1-yl)phenyl]amino}-5-(trifluoromethyl)pyrimidin-4-yl]amino}methyl)pyridin-2-yl]methanesulfonamide] |
| < 0.595 | CNC(=O)c1ccc(Nc2ncc(C(F)(F)F)c(NCc3nccnc3N(C)S(C)(=O)=O)n2)c(F)c1 [Compound 368, 3-fluoro-N-methyl-4-({4-[({3-[methyl(methylsulfonyl)amino]pyrazin-2-yl}methyl)amino]-5-(trifluoromethyl)pyrimidin-2-yl}amino)benzamide] |
| 1.49 | CNC(=O)c1ccc(Nc2ncc(C(F)(F)F)c(NCc3nccnc3N(C)S(C)(=O)=O)n2)c(F)c1 [Compound 369, 3-fluoro-N-methyl-4-({4-[({3-[methyl(methylsulfonyl)amino]pyrazin-2-yl}methyl)amino]-5-(trifluoromethyl)pyrimidin-2-yl}amino)benzamide] |
| 0.6 | CNC(=O)c1ccc(Nc2ncc(C(F)(F)F)c(NCc3nccnc3N(C)S(C)(=O)=O)n2)cc1F [Compound 370, 2-fluoro-N-methyl-4-({4-(({3-[methyl(methylsulfonyl)amino]pyrazin-2-yl}methyl)amino]-5-(trifluoromethyl)pyrimidin-2-yl}amino)benzamide] |
| 1.94 | CCC(=O)Nc1cccc(Nc2ncc(C(F)(F)F)c(NCc3cccnc3N(C)S(C)(=O)=O)n2)c1 [Compound 371, N-(3-({4-[({2-[methyl(methylsulfonyl)amino]pyridin-3-yl}methyl)amino]-5-(trifluoromethyl)pyrimidin-2-yl}amino)phenyl]propanamide] |
| 4 | CN(c1ncccc1CNc1nc(Nc2ccc(C(N)=O)nc2)ncc1C(F)(F)F)S(C)(=O)=O [Compound 372, 5-({4-[({2-[methyl(methylsulfonyl)amino]pyridin-3-yl}methyl)amino]-5-(trifluoromethyl)pyrimidin-2-yl}amino)pyridine-2-carboxamide] |
| 7.49 | CN(c1nccnc1CNc1nc(Nc2cc(C(N)=O)ccc2F)ncc1C(F)(F)F)S(C)(=O)=O [Compound 373, 4-fluoro-3-({4-[({3-[methyl(methylsulfonyl)amino]pyrazin-2-yl}methyl)amino]-5-(trifluoromethyl)pyrimidin-2-yl}amino)benzamide] |
| 15.5 | CN(c1cccc(CNc2nc(Nc3cc(C(N)=O)ccc3F)ncc2C(F)(F)F)c1)S(C)(=O)=O [Compound 374, 4-fluoro-3-{[4-({3-[methyl(methylsulfonyl)amino]benzyl}amino)-5-(trifluoromethyl)pyrimidin-2-yl]amino}benzamide] |
| 6.29 | CN(c1ncccc1CNc1nc(Nc2cc(C(N)=O)ccc2F)ncc1C(F)(F)F)S(C)(=O)=O [Compound 375, 4-fluoro-3-({4-[({2-[methyl(methylsulfonyl)amino]pyridin-3-yl}methyl)amino]-5-(trifluoromethyl)pyrimidin-2-yl)amino)benzamide] |
| 8.15 | CN(c1cccc(CNc2nc(Nc3ccc(C(N)=O)nc3)ncc2C(F)(F)F)c1)S(C)(=O)=O [Compound 376, 5-{[4-({3-[methyl(methylsulfonyl)amino]benzyl}amino)-5-(trifluoromethyl)pyrimidin-2-yl]amino}pyridine-2-carboxamide] |
| 15.3 | CN(c1cccnc1CNc1nc(Nc2ccc(C(N)=O)nc2)ncc1C(F)(F)F)S(C)(=O)=O [Compound 377, 5-({4-[({3-[methyl(methylsulfonyl)amino]pyridin-2-yl}methyl)amino]-5-(trifluoromethyl)pyrimidin-2-yl}amino)pyridine-2-carboxamide] |
